Measured values reported in patent publication US3991204A, “Method of using benzopyrans as antiparasitic agents” (American Cyanamid Company, priority 1975, dated 1976).
Values joined by “and” are separate entries in the source; they are usually repeats but may differ in a detail not shown here. Equal values may be shown once.

Assays:
Trichostrongylus axei = test: Evaluation (efficacy) test in experimentally inoculated sheep, Trichostrongylus axei; type: in vivo, Trichostrongylus axei (host: lambs); details: intraruminal dose 50 mg/kg
Method: (§1) Evaluation (Efficacy) Test in Sheep
(§2) Lambs are experimentally inoculated with Haemonchus contortus (H.c.), Trichostrongylus axei (T.a.), Ostertagia circumcincta (O.c) and Trichostrongylus colubriformis (T.c.) species. At patency of the parasites the lambs are treated with 50 mg/kg of body weight with the compound under test administered as an intraruminal injection in 0.2 percent agar. Three days post treatment treated lambs and similary inoculated controls are necropsied and examined for parasites. Percent efficacy is calculated by comparing the average worm burden in the treated group with the average worm burden in the control group.

[1] = system: Trichostrongylus vitrinus; test: Efficacy against naturally occurring parasitic infestation in sheep, Trichostrongylus vitrinus male; type: in vivo, Trichostrongylus vitrinus (host: lambs); details: naturally infected sheep, single oral dose 100 mg/kg
Method: (§3) Efficacy of 3',4'-Dichloro-4-hydroxy-2-oxo-2H-1-benzopyran-3 -carboxanilideagainst Naturally Occurring Parasitic
(§4) Lambs naturally infected with a number of parasitic species are treated with 100 mg/kg of body weight with the compound under tested administration as a single oral dose. After treatment, 24 hour fecal outputs for 3 days are collected from each animal and examined for the passage of parasites. Three days post treatment the lambs are necropsied and examined for parasites. Percent efficacy is calculated using the formula: [formula]

[2] = system: Trichostrongylus colubriformis; test: Evaluation against Trichostrongylus colubriformis in the Mongolian gerbil; type: in vivo, Trichostrongylus colubriformis (host: Mongolian gerbil)
Method: Evaluation of 3',4'-Dichloro-4-hydroxy-2-oxo-2H-1-benzopyran-3-carboxanilide against Trichlostrongylus colubriformis in the Mongolian Gerbil Monogolian gerbils are inoculated with 2000 T. colubriformis larvae each. Fourteen to 94 days post inoculation the gerbils are treated with the appropiate drug level diet for 6 days. For single oral dose administration the compound is thoroughly mixed with 0.1 percent agar and orally intubated at the required level. After treatment, 24 hour fecal outputs for 3 days are collected from each animal and examined for passage of parasites. Three days post treatment the gerbils are necropsied and examined for parasites. Percent efficacy is calculated using the formula: [formula]

Haemonchus contortus = test: Evaluation (efficacy) test in experimentally inoculated sheep, Haemonchus contortus; type: in vivo, Haemonchus contortus (host: lambs); details: intraruminal dose 50 mg/kg
Method: as §1, §2

Ascaris suum = test: Efficacy against Ascaris suum in mice (lung pathology and lung larvae versus controls); type: in vivo, Ascaris suum (host: Swiss Webster mice); design: key: Active; Inactive
Method: (§5) Efficacy of 4-Hydroxy-2-oxo-2H-1-benzopyran-3-carboxanilide derivatives against various helminths in mice
(§6) Six weeks old Swiss Webster mice are orally inoculated with Nematospiroides dubius, Hymenolepis nana and Aspicularis tetraptera. Eighteen days postinoculation the mice are treated with the appropriate drug diet level for 7 days. For single oral dose administration the compound is thoroughly mixed with 0.1 percent agar and orally intubated at the required dosage 22 days postinfection. 10-15,000 Ascaris suum infective eggs are administered to mice after 1 day on diet medication or 3 days prior to single oral dose administration. Determination of efficacy is done by counting all the N. dubius in treated mice versus the control average. For H. nana and A. tetraptera the absence or presence of these parasites in treated mice is the criterior for determining activity. For A. suum activity the following criterion was used. Reduction or elimination of lung pathology and the total number of lung larvae from treated animals was compared to lung larvae recovered from controls.

Bunostomum = test: Efficacy against naturally occurring parasitic infestation in sheep, Bunostomum; type: in vivo, Bunostomum (host: lambs); details: naturally infected sheep, single oral dose 100 mg/kg
Method: as §3, §4

Hymenolepis nana = test: Efficacy against Hymenolepis nana in mice (absence or presence of parasites); type: in vivo, Hymenolepis nana (host: Swiss Webster mice); design: key: Active; Inactive
Method: as §5, §6

Cooperia punctata = test: Efficacy against naturally occurring parasitic infestation in sheep, Cooperia punctata; type: in vivo, Cooperia punctata (host: lambs); details: naturally infected sheep, single oral dose 100 mg/kg
Method: as §3, §4

[3] = system: Trichostrongylus colubriformis; test: Evaluation (efficacy) test in experimentally inoculated sheep, Trichostrongylus colubriformis; type: in vivo, Trichostrongylus colubriformis (host: lambs); details: intraruminal dose 50 mg/kg
Method: as §1, §2

Aspicularis tetraptera = test: Efficacy against Aspicularis tetraptera in mice (absence or presence of parasites); type: in vivo, Aspicularis tetraptera (host: Swiss Webster mice); design: key: Active; Inactive
Method: as §5, §6

[4] = system: Trichostrongylus colubriformis; test: Efficacy against naturally occurring parasitic infestation in sheep, Trichostrongylus colubriformis male; type: in vivo, Trichostrongylus colubriformis (host: lambs); details: naturally infected sheep, single oral dose 100 mg/kg
Method: as §3, §4

Nematospiroides dubius = test: Efficacy against Nematospiroides dubius in mice (worm count in treated mice versus control average); type: in vivo, Nematospiroides dubius (host: Swiss Webster mice); design: key to % Eff. N.d. (class symbol): Active; Inactive; details: for inhibition in vivo at 0.05 % / inhibition in vivo at 0.1 %: po, 168 h; for inhibition in vivo at 0.05 %: drug diet 0.05% for 7 days; for inhibition in vivo at 0.1 %: drug diet 0.1% for 7 days
Method: as §5, §6

Ostertagia circumcincta = test: Evaluation (efficacy) test in experimentally inoculated sheep, Ostertagia circumcincta; type: in vivo, Ostertagia circumcincta (host: lambs); details: intraruminal dose 50 mg/kg
Method: as §1, §2

[5] = Heligmosomoides polygyrus, read-out: % Eff. N.d.

O=C(Nc1ccc(Cl)c(Cl)c1)c1c(O)c2ccccc2oc1=O [Example 1, 3',4'-Dichloro-4-hydroxy-2-oxo-2H-1-benzopyran-3-carboxanilide]
% Efficacy T.a. (Trichostrongylus axei): 0%
% Efficacy T.v. Male [1]: 100% and 79%
% Efficacy ([2]; 0.05% drug in feed × 6 Days): 82%
% Efficacy ([2]; single oral dose 100 mg/kg): 40%
% Efficacy ([2]; single oral dose 500 mg/kg): 100%
% Efficacy H.c. (Haemonchus contortus): 100%
A.s. activity (Ascaris suum; drug diet 0.05% for 7 days): i
A.s. activity (Ascaris suum; drug diet 0.1% for 7 days): i
A.s. activity (Ascaris suum; single oral dose 100 mg/kg): i
A.s. activity (Ascaris suum; single oral dose 500 mg/kg): A
A.s. activity (Ascaris suum; single oral dose 1000 mg/kg): A
A.s. activity (Ascaris suum; single oral dose 2000 mg/kg): A
% Efficacy Bun. (Bunostomum): 100%
H.n. activity (Hymenolepis nana; drug diet 0.05% for 7 days): i
H.n. activity (Hymenolepis nana; drug diet 0.1% for 7 days): A
H.n. activity (Hymenolepis nana; single oral dose 100 mg/kg): i
H.n. activity (Hymenolepis nana; single oral dose 500 mg/kg): i
H.n. activity (Hymenolepis nana; single oral dose 1000 mg/kg): i
% Efficacy C.p. (Cooperia punctata): 100%
% Efficacy T.c. [3]: 35%
A.t. activity (Aspicularis tetraptera; drug diet 0.1% for 7 days): A
A.t. activity (Aspicularis tetraptera; single oral dose 100 mg/kg): A
A.t. activity (Aspicularis tetraptera; single oral dose 500 mg/kg): A
A.t. activity (Aspicularis tetraptera; single oral dose 1000 mg/kg): i
% Efficacy T.c. Male [4]: 85% and 61%
inhibition in vivo at 0.05 % (Nematospiroides dubius; [5]): 85%
inhibition in vivo at 0.1 % (Nematospiroides dubius; [5]): 100%
inhibition in vivo at 2000 mg/kg (Nematospiroides dubius; Heligmosomoides polygyrus, single oral dose 2000 mg/kg, read-out: % Eff. N.d.): 55%
% Eff. N.d. (class symbol) (Nematospiroides dubius; single oral dose 100 mg/kg): i
% Eff. N.d. (class symbol) (Nematospiroides dubius; single oral dose 500 mg/kg): i
% Eff. N.d. (class symbol) (Nematospiroides dubius; single oral dose 1000 mg/kg): i
% Efficacy O.c. (Ostertagia circumcincta): 86%

O=C(Nc1cccc(Cl)c1)c1c(O)c2ccccc2oc1=O [Example 2]
A.s. activity (Ascaris suum; drug diet 0.05% for 7 days): i
A.s. activity (Ascaris suum; drug diet 0.1% for 7 days): i
H.n. activity (Hymenolepis nana; drug diet 0.05% for 7 days): i
H.n. activity (Hymenolepis nana; drug diet 0.1% for 7 days): A
A.t. activity (Aspicularis tetraptera; drug diet 0.05% for 7 days): i
A.t. activity (Aspicularis tetraptera; drug diet 0.1% for 7 days): A
inhibition in vivo at 0.05 % (Nematospiroides dubius; [5]): 46%
inhibition in vivo at 0.1 % (Nematospiroides dubius; [5]): 65%

O=C(Nc1ccc(F)cc1)c1c(O)c2ccccc2oc1=O [Example 3]
A.s. activity (Ascaris suum; drug diet 0.1% for 7 days): i
H.n. activity (Hymenolepis nana; drug diet 0.1% for 7 days): A
A.t. activity (Aspicularis tetraptera; drug diet 0.1% for 7 days): i
inhibition in vivo at 0.1 % (Nematospiroides dubius; [5]): 54%

O=C(Nc1cccc(F)c1)c1c(O)c2ccccc2oc1=O [Example 4]
A.s. activity (Ascaris suum; drug diet 0.1% for 7 days): i
H.n. activity (Hymenolepis nana; drug diet 0.1% for 7 days): i
A.t. activity (Aspicularis tetraptera; drug diet 0.1% for 7 days): i
inhibition in vivo at 0.1 % (Nematospiroides dubius; [5]): 77%

O=C(Nc1ccccc1F)c1c(O)c2ccccc2oc1=O [Example 5]
A.s. activity (Ascaris suum; drug diet 0.1% for 7 days): i
H.n. activity (Hymenolepis nana; drug diet 0.1% for 7 days): i
A.t. activity (Aspicularis tetraptera; drug diet 0.1% for 7 days): i
inhibition in vivo at 0.1 % (Nematospiroides dubius; [5]): 66%

O=C(Nc1ccc(F)cc1F)c1c(O)c2ccccc2oc1=O [Example 6]
A.s. activity (Ascaris suum; drug diet 0.1% for 7 days): i
H.n. activity (Hymenolepis nana; drug diet 0.1% for 7 days): i
A.t. activity (Aspicularis tetraptera; drug diet 0.1% for 7 days): A
inhibition in vivo at 0.1 % (Nematospiroides dubius; [5]): 94%

O=C(Nc1cc(F)ccc1F)c1c(O)c2ccccc2oc1=O [Example 7]
A.s. activity (Ascaris suum; drug diet 0.1% for 7 days): i
H.n. activity (Hymenolepis nana; drug diet 0.1% for 7 days): i
A.t. activity (Aspicularis tetraptera; drug diet 0.1% for 7 days): i
inhibition in vivo at 0.1 % (Nematospiroides dubius; [5]): 41%

O=C(Nc1ccc(Cl)cc1Cl)c1c(O)c2ccccc2oc1=O [Example 8]
A.s. activity (Ascaris suum; drug diet 0.05% for 7 days): i
A.s. activity (Ascaris suum; drug diet 0.1% for 7 days): i
H.n. activity (Hymenolepis nana; drug diet 0.05% for 7 days): i
H.n. activity (Hymenolepis nana; drug diet 0.1% for 7 days): i
A.t. activity (Aspicularis tetraptera; drug diet 0.05% for 7 days): A
A.t. activity (Aspicularis tetraptera; drug diet 0.1% for 7 days): A
inhibition in vivo at 0.05 % (Nematospiroides dubius; [5]): 94%
inhibition in vivo at 0.1 % (Nematospiroides dubius; [5]): 100%
